The subject of this experiment is IL-1β secretion, THP-1 cells. Put plainly: IL-1β secretion assay in PMA-differentiated THP-1 cells stimulated with LPS and nigericin (ELISA readout). The experiment is classed as cell-based. The note with it: Homo sapiens, THP-1, inhibition of IL-1β secretion, 25 ng/mL LPS then nigericin. The protocol: Compounds as provided herein were tested in the following assay. Cell culture medium employed contained RPMI 1640 medium (89%), FBS (10%), Pen/Strep (1%), and 2-mercaptoethanol (0.05 mM). Freezing medium was made up of 90% FBS and 10% DMSO. THP-1 cells were removed from the liquid nitrogen and placed into a 37° C. water bath to thaw, until signs of ice dissipated. The cells were then added to 9 mL of warm cell culture medium and centrifuged for 5 minutes at 1000 rpm. The supernatant was discarded, and the cells were resuspended in new cell culture medium. THP-1 cells were then split and cultured in the cell culture medium, being passaged every 2-3 days with the cell density will be maintained between 5×10^5 and 1.5×10^6 viable cells/mL.
PMA was dissolved in DMSO to make a stock solution at 5 mg/ml and stored in 10 µl aliquots at -20° C. for single use. PMA is added to normal growth medium. LPS was diluted with 1 mL of water solution to provide a 1 mg/mL stock solution and stored in 15 µl aliquots at -20° C. for single use. Nigericin is diluted in ice cold 100% ethanol to 5 mg/ml (6.7 mM) and stored in 75 µL aliquots at -20° C. for single use. Serum-free media contains RPMI 1640 medium (99%), Pen/Strep (1%), and 2-mercaptoethanol (0.05 mM). The two control conditions used to qualify and normalize test compound dose-response curves were as follows: High Control = 25 ng/mL LPS, 5 µM Nigericin, 0.5% DMSO, Low Control = 25 ng/mL, LPS, 0.5% DMSO.
THP-1 cells were diluted to provide a suspension at a concentration of 1.0×10^6 cells/mL with the total volume of suspension required to enable the desired number of assay plates. The growth media was supplemented with PMA (5 ng/mL final concentration) and the cells were incubated at 37° C. under a humidified atmosphere of 5% CO2 for 40 h.
All media was carefully aspirated from each culture flask. The cells were washed carefully with 1x DPBS. The cells were then briefly digested with trypsin LE for 5 minutes at 23° C. and immediately resuspended in cell growth media. After resuspension, the cells were centrifuged at 1000 rpm for 3 minutes and the supernatant was discarded. The cells were resuspended in DPBS and once again centrifuged at 1000 rpm for 5 minutes. The supernatant was discarded and the cell pellet was resuspended in serum-free media supplemented with LPS (25 ng/mL final concentration) to enable the distribution of 30 K THP-1 cells within 45 µL of media into each well of 384-well PDL-coated plates. The 384-well plates were then incubated at 37° C. under a humidified atmosphere of 5% CO2 for 2 h. Following this period, test compounds were dispensed by Tecan across the desired concentration range with all wells normalized to a final 0.5 % DMSO concentration. The plates were then then incubated at 37° C. under a humidified atmosphere of 5% CO2 for 1 h. Following this period, 5 µL of the […] nigericin stock solution was added to each of the appropriate wells and plates were centrifuged at 1000 rpm for 30 seconds. The plates were the immediately reintroduced to the incubator at 37° C. under a humidified atmosphere of 5% CO2 for 2 h. After this time, 35 µL/well of supernatant was collected and transferred into v-bottom plate and centrifuged at 1000 rpm for 1 minute. These supernatant aliquots were analyzed using an IL-Iβ detection kit as described below. If needed, the test samples could be snap frozen and stored at -80° C. until analyzed.
To prepare each ELISA plate, capture antibody (mAb Mt175) was diluted with PBS to a final concentration of 2 µg/mL and then 20 µL of this solution was added to each well of the ELISA plate. Each plate was allowed to incubate overnight at 4° C. The next day, the capture antibody solution was removed and discarded. Each ELISA plate was washed 4 times with PBST followed by the addition of 25 µL/well of blocking buffer (Licor-927-40010) supplemented with 0.1% Tween 20. Each ELISA plate was then allowed to incubate for 1 hour at 23° C. […]
Background: An ELISA detects its analyte on a solid surface through an enzyme-linked reagent.

As usually defined, the IC50 is the concentration needed to halve the response being measured. A lower IC50 goes with greater potency. As for `CC(C)c1nn(CC(=O)Nc2ncncc2F)c(=O)c2ccc(I)cc12` [Example 20, N-(5-fluoropyrimidin-4-yl)-2-(6-iodo-1-oxo-4-propan-2-ylphthalazin-2-yl)acetamide], the concentration for half-maximal inhibition (IC50) reads like this: (class column of Table 3) under 10 µM; (numeric column of Table 3) 0.018 µM.
For `CC(C)c1nn(CC(=O)Nc2ncncc2F)c(=O)c2ccc(C(F)F)cc12` [Example 21, 2-[6-(difluoromethyl)-1-oxo-4-propan-2-ylphthalazin-2-yl]-N-(5-fluoropyrimidin-4-yl)acetamide], in that order: under 10 µM and 1.06 µM.
As for `CC(C)c1nn(CC(=O)Nc2ncncc2F)c(=O)c2ccc(Br)nc12` [Example 22, 2-(2-bromo-5-oxo-8-propan-2-ylpyrido[2,3-d]pyridazin-6-yl)-N-(5-fluoropyrimidin-4-yl)acetamide], the IC50 is under 10 µM (class column of Table 3) and 0.398 µM (numeric column of Table 3).
As for `CSc1ccc2c(=O)n(CC(=O)Nc3ncncc3F)nc(C(C)C)c2n1` [Example 23, N-(5-fluoropyrimidin-4-yl)-2-(2-methylsulfanyl-5-oxo-8-propan-2-ylpyrido[2,3-d]pyridazin-6-yl)acetamide], the IC50 runs as follows: (class column of Table 3) under 10 µM; (numeric column of Table 3) 2.07 µM.
Turning to `CC(C)c1nn(CC(=O)Nc2ncncc2F)c(=O)c2ccc(C(F)(F)F)nc12` [Example 24, N-(5-fluoropyrimidin-4-yl)-2-[5-oxo-8-propan-2-yl-2-(trifluoromethyl)pyrido[2,3-d]pyridazin-6-yl]acetamide], the IC50 is under 10 µM (class column of Table 3) and 0.138 µM (numeric column of Table 3).
For `O=C(Cn1nc(C(F)F)c2cc(C(F)(F)F)ccc2c1=O)Nc1ncc(F)cn1` [Example 25, 2-[4-(difluoromethyl)-1-oxo-6-(trifluoromethyl)phthalazin-2-yl]-N-(5-fluoropyrimidin-2-yl)acetamide], in that order: under 10 µM and 0.689 µM.
Take `O=C(Cn1nc(C(F)F)c2c(F)c(Br)ccc2c1=O)Nc1ncc(F)cn1` [Example 26, 2-[6-bromo-4-(difluoromethyl)-5-fluoro-1-oxophthalazin-2-yl]-N-(5-fluoropyrimidin-2-yl)acetamide]: the concentration for half-maximal inhibition (IC50) reads like this: (class column of Table 3) under 10 µM; (numeric column of Table 3) 0.078 µM.
In the case of `O=C(Cn1nc(C(F)F)c2c(F)c(Br)ccc2c1=O)Nc1ncccn1` [Example 27, 2-[6-bromo-4-(difluoromethyl)-5-fluoro-1-oxophthalazin-2-yl]-N-pyrimidin-2-ylacetamide], the half-inhibitory concentration (IC50) was under 10 µM (class column of Table 3) and 0.137 µM (numeric column of Table 3).
`N#Cc1cnc(NC(=O)Cn2nc(C(F)F)c3c(F)c(Br)ccc3c2=O)c(F)c1` [Example 28, 2-[6-bromo-4-(difluoromethyl)-5-fluoro-1-oxophthalazin-2-yl]-N-(5-cyano-3-fluoropyridin-2-yl)acetamide] displayed a concentration for half-maximal inhibition (IC50) (class column of Table 3) of under 10 µM and a 50% inhibitory concentration (IC50) (numeric column of Table 3) of 0.307 µM.
As for `COc1ccc(NC(=O)Cn2nc(C(C)C)c3cc(Br)ccc3c2=O)cn1` [Example 29, 2-(6-bromo-1-oxo-4-propan-2-ylphthalazin-2-yl)-N-(6-methoxypyridin-3-yl)acetamide], the IC50 was under 10 µM (class column of Table 3) and 0.286 µM (numeric column of Table 3).
For `CC(C)c1nn(CC(=O)Nc2ccc(Cl)nc2)c(=O)c2ccc(Br)cc12` [Example 30, 2-(6-bromo-1-oxo-4-propan-2-ylphthalazin-2-yl)-N-(6-chloropyridin-3-yl)acetamide], the IC50 runs as follows: (class column of Table 3) under 10 µM; (numeric column of Table 3) 0.519 µM.
Consider `Cc1ncc(F)c(NC(=O)Cn2nc(C(C)C)c3cc(Br)ccc3c2=O)n1` [Example 31, 2-(6-bromo-1-oxo-4-propan-2-ylphthalazin-2-yl)-N-(5-fluoro-2-methylpyrimidin-4-yl)acetamide], for which the IC50 (class column of Table 3) was under 10 µM and the IC50 (numeric column of Table 3) is 1.32 µM.
On to `COc1nn(CC(=O)Nc2ncc(F)cn2)c(=O)c2ccc(Br)cc12` [Example 32, 2-(6-bromo-4-methoxy-1-oxophthalazin-2-yl)-N-(5-fluoropyrimidin-2-yl)acetamide], for which the IC50 was under 10 µM (class column of Table 3) and 0.128 µM (numeric column of Table 3).
As to `CC(C)c1nn(CC(=O)Nc2ccncn2)c(=O)c2ccc(Br)cc12` [Example 33, 2-(6-bromo-1-oxo-4-propan-2-ylphthalazin-2-yl)-N-pyrimidin-4-ylacetamide], the concentration for half-maximal inhibition (IC50) runs as follows: (class column of Table 3) under 10 µM; (numeric column of Table 3) 0.176 µM.
`CC(C)c1nn(CC(=O)Nc2ccnc(C(F)(F)F)n2)c(=O)c2ccc(Br)cc12` [Example 34, 2-(6-bromo-1-oxo-4-propan-2-ylphthalazin-2-yl)-N-[2-(trifluoromethyl)pyrimidin-4-yl]acetamide]: the half-inhibitory concentration (IC50) (class column of Table 3) is under 10 µM and the IC50 (numeric column of Table 3) stood at 1.89 µM.
On to `CC(C)c1nn(CC(=O)Nc2ncccc2F)c(=O)c2ccc(Br)cc12` [Example 35, 2-(6-bromo-1-oxo-4-propan-2-ylphthalazin-2-yl)-N-(3-fluoropyridin-2-yl)acetamide], for which the half-inhibitory concentration (IC50) runs as follows: (class column of Table 3) under 10 µM; (numeric column of Table 3) 0.529 µM.
In the case of `CC(C)c1nn(CC(=O)Nc2nc(Cl)ccc2F)c(=O)c2ccc(Br)cc12` [Example 36, 2-(6-bromo-1-oxo-4-propan-2-ylphthalazin-2-yl)-N-(6-chloro-3-fluoropyridin-2-yl)acetamide], the IC50 by setting is: (class column of Table 3) under 10 µM; (numeric column of Table 3) 2.8 µM.
The like results for `CC(C)c1nn(CC(=O)Nc2c(F)cncc2F)c(=O)c2ccc(Br)cc12` [Example 37, 2-(6-bromo-1-oxo-4-propan-2-ylphthalazin-2-yl)-N-(3,5-difluoropyridin-4-yl)acetamide] were, in that order, under 10 µM and 4.95 µM.
In turn, `CC(C)c1nn(CC(=O)Nc2ncc(F)cc2F)c(=O)c2ccc(Br)cc12` [Example 38, 2-(6-bromo-1-oxo-4-propan-2-ylphthalazin-2-yl)-N-(3,5-difluoropyridin-2-yl)acetamide] had an IC50 (class column of Table 3) of under 10 µM and a concentration for half-maximal inhibition (IC50) (numeric column of Table 3) of 0.913 µM.
For the compound `CC(C)c1nn(CC(=O)Nc2ncccn2)c(=O)c2ccc(Br)cc12` [Example 39, 2-(6-bromo-1-oxo-4-propan-2-ylphthalazin-2-yl)-N-pyrimidin-2-ylacetamide], the IC50 (class column of Table 3) is under 10 µM and the IC50 (numeric column of Table 3) came to 0.054 µM.
As to `CC(C)c1nn(CC(=O)Nc2nc(F)ccc2F)c(=O)c2ccc(Br)cc12` [Example 40, 2-(6-bromo-1-oxo-4-propan-2-ylphthalazin-2-yl)-N-(3,6-difluoropyridin-2-yl)acetamide], the IC50 (class column of Table 3) is under 10 µM and the midpoint of inhibition (numeric column of Table 3), the IC50, lay at 1.06 µM.
As for `CC(C)c1nn(CC(=O)Nc2ncc(C(F)(F)F)cc2F)c(=O)c2ccc(Br)cc12` [Example 41, 2-(6-bromo-1-oxo-4-propan-2-ylphthalazin-2-yl)-N-[3-fluoro-5-(trifluoromethyl)pyridin-2-yl]acetamide], the IC50 runs as follows: (class column of Table 3) under 10 µM; (numeric column of Table 3) 0.163 µM.
As to `CC(C)c1nn(CC(=O)NC2CCC(F)(F)C2)c(=O)c2ccc(Br)cc12` (stereo not drawn) [Example 42, 2-(6-bromo-1-oxo-4-propan-2-ylphthalazin-2-yl)-N-(3,3-difluorocyclopentyl)acet amide], the 50% inhibitory concentration (IC50) was under 10 µM (class column of Table 3) and 3.35 µM (numeric column of Table 3).
`CC1CC(NC(=O)Cn2nc(C(C)C)c3cc(Br)ccc3c2=O)CCO1` (stereo not drawn) [Example 43, 2-(6-bromo-1-oxo-4-propan-2-ylphthalazin-2-yl)-N-(2-methyloxan-4-yl)acetamide]: the IC50 reads like this: (class column of Table 3) under 10 µM; (numeric column of Table 3) 4.23 µM.

Values taken from patent US20230357162A1, “COMPOUNDS, COMPOSITIONS AND METHODS” (Denali Therapeutics Inc., priority 2020, published 2023).
